The source made the active and inactive calls. No cut-off for these calls is given here.
Assays:
HCT-116 [1] = assay: Induction of apoptosis in human HCT-116 cells assessed as live cells at 1.6 uM incubated for 48 hrs by annexin V-FITC and propidium iodide staining based flow cytometry (Rvb=68.64%); assay type: functional
HCT-116 [2] = assay: Induction of intracellular ROS generation in human HCT-116 cells at 1.6 to 3.2 uM incubated for 48 hrs by DCFDA staining based fluorescence analysis; assay type: functional, cell-based; settings: dose 1.6-3.2 µM
HCT-116 [3] = assay: Induction of mitochondrial transmembrane potential loss in human HCT-116 cells assessed as reduction in red/green fluorescence ratio at 6.4 uM incubated for 48 hrs by JC-1 staining based fluorescence microscopic analysis; assay type: functional, cell-based
HCT-116 [4] = assay: Induction of apoptosis in human HCT-116 cells assessed as late apoptotic cells at 1.6 uM incubated for 48 hrs by annexin V-FITC and propidium iodide staining based flow cytometry (Rvb=13.51%); assay type: functional
HCT-116 [5] = assay: Induction of apoptosis in human HCT-116 cells assessed as necrotic cells at 3.2 uM incubated for 48 hrs by annexin V-FITC and propidium iodide staining based flow cytometry (Rvb=13.42%); assay type: functional
HCT-116 [6] = assay: Anti-metastatic activity against human HCT-116 cells assessed as inhibition of cell migration by measuring wound width at 3.2 uM and measured at 0 hrs by scratch wound healing assay (Rvb=287.904 micrometer); assay type: functional
HCT-116 [7] = assay: Induction of apoptosis in human HCT-116 cells assessed as horse shoe-shaped nuclear morphological change at 1.6 to 6.4 uM incubated for 48 hrs by DAPI staining based fluorescence microscopy; assay type: functional, cell-based; settings: dose 1.6-6.4 µM
MCF7 [8] = assay: Antiproliferative activity against human MCF7 cells assessed as cell growth inhibition at 20 uM incubated for 48 hrs by MTT assay; assay type: functional
HCT-116 [9] = assay: Induction of intracellular ROS generation in human HCT-116 cells at 6.4 uM incubated for 48 hrs by DCFDA staining based fluorescence analysis; assay type: functional, cell-based
HCT-116 [10] = assay: Induction of apoptosis in human HCT-116 cells assessed as chromatin condensation at 1.6 to 6.4 uM incubated for 48 hrs by DAPI staining based fluorescence microscopy; assay type: functional, cell-based; settings: dose 1.6-6.4 µM
HCT-116 [11] = assay: Induction of apoptosis in human HCT-116 cells assessed as cell shape alteration at 1.6 to 6.4 uM incubated for 48 hrs by phase-contrast microscopy; assay type: functional, cell-based; settings: dose 1.6-6.4 µM
HCT-116 [12] = assay: Induction of apoptosis in human HCT-116 cells assessed as cell shrinkage at 1.6 to 6.4 uM incubated for 48 hrs by phase-contrast microscopy; assay type: functional, cell-based; settings: dose 1.6-6.4 µM
HCT-116 [13] = assay: Anti-metastatic activity against human HCT-116 cells assessed as inhibition of cell migration by measuring wound width at 1.6 uM and measured at 48 hrs by scratch wound healing assay (Rvb=179.681 micrometer); assay type: functional
[14] = Cytotoxicity against human HaCaT cells assessed as cell growth inhibition incubated for 48 hrs by MTT assay; assay type: toxicity, cell-based
HCT-116 [15] = assay: Antiproliferative activity against human HCT-116 cells assessed as cell growth inhibition incubated for 48 hrs by MTT assay; assay type: functional, cell-based; settings: HCT-116, 48 h
HCT-116 [16] = assay: Induction of apoptosis in human HCT-116 cells assessed as necrotic cells at 1.6 uM incubated for 48 hrs by annexin V-FITC and propidium iodide staining based flow cytometry (Rvb=13.42%); assay type: functional
HCT-116 [17] = assay: Induction of apoptosis in human HCT-116 cells assessed as early apoptotic cells at 6.4 uM incubated for 48 hrs by annexin V-FITC and propidium iodide staining based flow cytometry (Rvb=4.44%); assay type: functional
MCF7 [18] = assay: Antiproliferative activity against human MCF7 cells assessed as cell growth inhibition incubated for 48 hrs by MTT assay; assay type: functional, cell-based; settings: MCF7, 48 h
HCT-116 [19] = assay: Induction of apoptosis in human HCT-116 cells assessed as early apoptotic cells at 3.2 uM incubated for 48 hrs by annexin V-FITC and propidium iodide staining based flow cytometry (Rvb=4.44%); assay type: functional
SK-MEL-28 [20] = assay: Antiproliferative activity against human SK-MEL-28 cells assessed as cell growth inhibition at 20 uM incubated for 48 hrs by MTT assay; assay type: functional
HCT-116 [21] = assay: Induction of apoptosis in human HCT-116 cells assessed as early apoptotic cells at 1.6 uM incubated for 48 hrs by annexin V-FITC and propidium iodide staining based flow cytometry (Rvb=4.44%); assay type: functional
HCT-116 [22] = assay: Induction of apoptosis in human HCT-116 cells assessed as live cells at 3.2 uM incubated for 48 hrs by annexin V-FITC and propidium iodide staining based flow cytometry (Rvb=68.64%); assay type: functional
HCT-116 [23] = assay: Anti-metastatic activity against human HCT-116 cells assessed as inhibition of cell migration by measuring wound width at 3.2 uM and measured at 48 hrs by scratch wound healing assay (Rvb=179.681 micrometer); assay type: functional
HCT-116 [24] = assay: Anti-metastatic activity against human HCT-116 cells assessed as inhibition of cell migration by measuring wound width at 6.4 uM and measured at 0 hrs by scratch wound healing assay (Rvb=287.904 micrometer); assay type: functional
HCT-116 [25] = assay: Induction of apoptosis in human HCT-116 cells assessed as increase in late apoptotic cells by measuring ratio of orange-red fluorescence at 1.6 to 6.4 uM incubated for 48 hrs by Acridine orange/ethidium bromide staining based fluorescence microscopy; assay type: functional, cell-based; settings: dose 1.6-6.4 µM
HCT-116 [26] = assay: Induction of apoptosis in human HCT-116 cells assessed as late apoptotic cells at 6.4 uM incubated for 48 hrs by annexin V-FITC and propidium iodide staining based flow cytometry (Rvb=13.51%); assay type: functional
HCT-116 [27] = assay: Induction of apoptosis in human HCT-116 cells assessed as live cells at 6.4 uM incubated for 48 hrs by annexin V-FITC and propidium iodide staining based flow cytometry (Rvb=68.64%); assay type: functional
HCT-116 [28] = assay: Anti-metastatic activity against human HCT-116 cells assessed as inhibition of cell migration at 1.6 to 6.4 uM and measured at 48 hrs by scratch wound healing assay; assay type: functional, cell-based; settings: dose 1.6-6.4 µM
HCT-116 [29] = assay: Induction of apoptosis in human HCT-116 cells assessed as reduction in number of viable cells at 1.6 to 6.4 uM incubated for 48 hrs by phase-contrast microscopy; assay type: functional, cell-based; settings: dose 1.6-6.4 µM
A549 [30] = assay: Antiproliferative activity against human A549 cells assessed as cell growth inhibition incubated for 48 hrs by MTT assay; assay type: functional, cell-based; settings: A549, 48 h
HCT-116 [31] = assay: Induction of mitochondrial transmembrane potential loss in human HCT-116 cells assessed as reduction in red/green fluorescence ratio at 1.6 to 3.2 uM incubated for 48 hrs by JC-1 staining based fluorescence microscopic analysis; assay type: functional, cell-based; settings: dose 1.6-3.2 µM
A549 [32] = assay: Antiproliferative activity against human A549 cells assessed as cell growth inhibition at 20 uM incubated for 48 hrs by MTT assay; assay type: functional
HCT-116 [33] = assay: Anti-metastatic activity against human HCT-116 cells assessed as inhibition of cell migration by measuring wound width at 6.4 uM and measured at 48 hrs by scratch wound healing assay (Rvb=179.681 micrometer); assay type: functional
HCT-116 [34] = assay: Induction of apoptosis in human HCT-116 cells assessed as late apoptotic cells at 3.2 uM incubated for 48 hrs by annexin V-FITC and propidium iodide staining based flow cytometry (Rvb=13.51%); assay type: functional
HCT-116 [35] = assay: Induction of apoptosis in human HCT-116 cells assessed as necrotic cells at 6.4 uM incubated for 48 hrs by annexin V-FITC and propidium iodide staining based flow cytometry (Rvb=13.42%); assay type: functional
SK-MEL-28 [36] = assay: Antiproliferative activity against human SK-MEL-28 cells assessed as cell growth inhibition incubated for 48 hrs by MTT assay; assay type: functional, cell-based; settings: SK-MEL-28, 48 h
HCT-116 [37] = assay: Induction of apoptosis in human HCT-116 cells assessed as increase in necrotic cells by measuring ratio of orange-red fluorescence at 1.6 to 6.4 uM incubated for 48 hrs by Acridine orange/ethidium bromide staining based fluorescence microscopy; assay type: functional, cell-based; settings: dose 1.6-6.4 µM
HCT-116 [38] = assay: Induction of apoptosis in human HCT-116 cells assessed as pyknotic/fragmented bright nucleus at 1.6 to 6.4 uM incubated for 48 hrs by DAPI staining based fluorescence microscopy; assay type: functional, cell-based; settings: dose 1.6-6.4 µM
HCT-116 [39] = assay: Anti-metastatic activity against human HCT-116 cells assessed as inhibition of cell migration by measuring wound width at 1.6 uM and measured at 0 hrs by scratch wound healing assay (Rvb=287.904 micrometer); assay type: functional
[40] = target: Epidermal growth factor receptor (Homo sapiens, UniProt P00533); assay: Inhibition of EGFR (unknown origin) using poly E4Y1 and ATP as substrate incubated for 60 mins by ADP-Glo kinase assay
Sequence of Epidermal growth factor receptor (P00533 whole entry): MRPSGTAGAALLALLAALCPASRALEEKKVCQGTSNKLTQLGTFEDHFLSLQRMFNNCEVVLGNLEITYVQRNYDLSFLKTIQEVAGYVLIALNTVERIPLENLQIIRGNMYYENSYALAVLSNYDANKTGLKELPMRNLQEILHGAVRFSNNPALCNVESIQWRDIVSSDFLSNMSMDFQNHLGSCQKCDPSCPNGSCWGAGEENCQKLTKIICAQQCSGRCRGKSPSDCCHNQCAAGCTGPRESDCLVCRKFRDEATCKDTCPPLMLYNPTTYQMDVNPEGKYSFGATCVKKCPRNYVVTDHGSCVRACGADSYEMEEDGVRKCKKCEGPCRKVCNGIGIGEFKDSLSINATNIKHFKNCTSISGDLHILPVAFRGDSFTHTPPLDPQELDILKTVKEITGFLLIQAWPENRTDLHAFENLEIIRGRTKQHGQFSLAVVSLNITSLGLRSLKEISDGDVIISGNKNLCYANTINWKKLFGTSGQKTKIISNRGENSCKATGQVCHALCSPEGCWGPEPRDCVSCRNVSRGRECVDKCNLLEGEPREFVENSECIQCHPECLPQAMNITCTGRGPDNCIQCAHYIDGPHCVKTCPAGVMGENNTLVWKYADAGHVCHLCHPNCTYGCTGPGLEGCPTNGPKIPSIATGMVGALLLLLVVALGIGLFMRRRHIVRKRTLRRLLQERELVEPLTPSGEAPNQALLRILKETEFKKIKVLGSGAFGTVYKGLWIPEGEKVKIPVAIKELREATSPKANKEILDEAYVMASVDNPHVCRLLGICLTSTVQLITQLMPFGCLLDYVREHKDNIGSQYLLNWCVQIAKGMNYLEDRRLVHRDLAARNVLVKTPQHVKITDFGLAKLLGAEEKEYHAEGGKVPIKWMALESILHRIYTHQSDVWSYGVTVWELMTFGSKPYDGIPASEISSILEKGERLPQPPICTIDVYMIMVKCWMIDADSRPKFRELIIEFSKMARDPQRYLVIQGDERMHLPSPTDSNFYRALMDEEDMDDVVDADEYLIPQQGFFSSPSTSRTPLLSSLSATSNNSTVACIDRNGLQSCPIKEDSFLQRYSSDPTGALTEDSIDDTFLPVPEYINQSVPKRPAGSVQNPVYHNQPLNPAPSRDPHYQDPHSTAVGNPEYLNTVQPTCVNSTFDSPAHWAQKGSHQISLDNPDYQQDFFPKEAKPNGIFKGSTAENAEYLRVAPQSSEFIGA

HCT-116 [41] = assay: Antiproliferative activity against human HCT-116 cells assessed as cell growth inhibition at 20 uM incubated for 48 hrs by MTT assay; assay type: functional

For `Cc1sc([Se]c2sc(C)c(-c3cccc(Br)c3)c2C(=O)NC(CO)C(=O)N2CCCC2)c(C(=O)NC(CO)C(=O)N2CCCC2)c1-c1cccc(Br)c1` (stereo unspecified), the Activity (HCT-116 [1]) was 52.95%, the Activity (HCT-116 [2]) was “Dose-Dependent Effect” and the Activity (HCT-116 [3]) was “Active”. The Activity (HCT-116 [4]) was 27.98%, the Activity (HCT-116 [5]) was 12.61% and the Activity (HCT-116 [6]) was 296.312 um. For the same compound, the Activity (HCT-116 [7]) was “Active”, the inhibition at 20 µM (MCF7 [8]) was 90% and the Activity (HCT-116 [9]) was “Active”. For the same compound, the Activity (HCT-116 [10]) was “Active”, the Activity (HCT-116 [11]) was “Dose-Dependent Effect” and the Activity (HCT-116 [12]) was “Dose-Dependent Effect”. The Activity (HCT-116 [13]) was 235.37 um, the IC50 at 48 h [14] was 24 µM and the IC50 (HCT-116 [15]) was 3.2 µM. For the same compound, the Activity (HCT-116 [16]) was 10.1%, the Activity (HCT-116 [17]) was 3.04% and the IC50 (MCF7 [18]) was 8.06 µM. The Activity (HCT-116 [19]) was 11.75%, the inhibition at 20 µM (SK-MEL-28 [20]) was 78% and the Activity (HCT-116 [21]) was 8.97%. It also gave an Activity (HCT-116 [22]) of 32.12%, an Activity (HCT-116 [23]) of 276.354 um and an Activity (HCT-116 [24]) of 275.298 um. For the same compound, the Activity (HCT-116 [25]) was “Dose-Dependent Effect”, the Activity (HCT-116 [26]) was 88.93% and the Activity (HCT-116 [27]) was 2.56%. For the same compound, the Activity (HCT-116 [28]) was “Dose-Dependent Effect”, the Activity (HCT-116 [29]) was “Dose-Dependent Effect” and the IC50 (A549 [30]) was 7.86 µM. For the same compound, the Activity (HCT-116 [31]) was “Dose-Dependent Effect”, the inhibition at 20 µM (A549 [32]) was 90% and the Activity (HCT-116 [33]) was 267.94 um. For the same compound, the Activity (HCT-116 [34]) was 43.71%, the Activity (HCT-116 [35]) was 5.47% and the IC50 (SK-MEL-28 [36]) was 8.81 µM. For the same compound, the Activity (HCT-116 [37]) was “Dose-Dependent Effect”, the Activity (HCT-116 [38]) was “Active” and the Activity (HCT-116 [39]) was 257.433 um. It also gave an IC50 [40] of 0.0944 µM and an inhibition at 20 µM (HCT-116 [41]) of 75%.
